Reference: patent US9334246B2, “Substituted triazines for malaria treatment and chemoprophylaxis” (The United States of America, as represented by the …, priority 2013, dated 2016)
≈ marks a conversion by molar mass, not a printed value.

Legend:
P. falciparum D6 = experiment: Malaria SYBR Green Fluorescence Assay, D6 strain; format: cell-based, Plasmodium falciparum
[1] = biological target: hERG potassium ion channel (Homo sapiens, UniProt Q12809); experiment: hERG patch clamp assay (% inhibition at 10 μM); details: for hERG (% inhibition): 10 μM
Sequence of hERG potassium ion channel (Q12809 whole entry): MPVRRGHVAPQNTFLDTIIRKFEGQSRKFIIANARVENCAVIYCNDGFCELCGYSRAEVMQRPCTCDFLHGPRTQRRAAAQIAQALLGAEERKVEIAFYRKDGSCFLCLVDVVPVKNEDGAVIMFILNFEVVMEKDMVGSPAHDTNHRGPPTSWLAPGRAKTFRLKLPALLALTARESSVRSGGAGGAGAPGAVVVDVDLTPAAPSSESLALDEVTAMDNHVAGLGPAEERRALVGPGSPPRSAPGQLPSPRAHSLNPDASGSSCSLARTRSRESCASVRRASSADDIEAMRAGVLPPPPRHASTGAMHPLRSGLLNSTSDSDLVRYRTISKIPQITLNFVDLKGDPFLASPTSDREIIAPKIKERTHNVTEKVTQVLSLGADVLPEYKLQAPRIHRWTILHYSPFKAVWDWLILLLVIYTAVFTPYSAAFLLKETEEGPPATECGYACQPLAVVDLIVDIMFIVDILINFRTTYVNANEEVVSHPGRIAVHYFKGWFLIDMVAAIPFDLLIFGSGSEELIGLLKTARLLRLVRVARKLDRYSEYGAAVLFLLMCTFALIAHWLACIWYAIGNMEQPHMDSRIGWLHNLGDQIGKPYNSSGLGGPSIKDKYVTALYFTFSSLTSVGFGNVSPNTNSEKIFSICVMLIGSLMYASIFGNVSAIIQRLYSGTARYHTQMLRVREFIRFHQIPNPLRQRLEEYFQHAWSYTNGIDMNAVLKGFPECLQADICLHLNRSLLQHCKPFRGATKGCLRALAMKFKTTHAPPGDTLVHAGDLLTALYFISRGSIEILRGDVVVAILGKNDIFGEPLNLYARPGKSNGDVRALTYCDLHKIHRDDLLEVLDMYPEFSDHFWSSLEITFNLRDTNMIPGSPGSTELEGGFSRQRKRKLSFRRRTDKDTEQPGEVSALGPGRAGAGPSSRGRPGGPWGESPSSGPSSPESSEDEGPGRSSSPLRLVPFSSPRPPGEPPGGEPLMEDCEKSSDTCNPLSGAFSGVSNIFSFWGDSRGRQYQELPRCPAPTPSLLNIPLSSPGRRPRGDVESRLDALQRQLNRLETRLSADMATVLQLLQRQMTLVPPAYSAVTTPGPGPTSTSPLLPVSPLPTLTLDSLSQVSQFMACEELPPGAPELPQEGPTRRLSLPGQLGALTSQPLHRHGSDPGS

P. falciparum C235 = experiment: Malaria SYBR Green Fluorescence Assay, C235 strain; format: cell-based, Plasmodium falciparum
P. falciparum W2 = experiment: Malaria SYBR Green Fluorescence Assay, W2 strain; format: cell-based, Plasmodium falciparum
[2] = % inhibition at 10 μM, patch clamp
[3] = Plasmodium falciparum, SYBR Green Assay

Compound | D6 (P. falciparum D6; SYBR Green Assay) [ng/mL] | hERG [1, 2] [%] | C235 (P. falciparum C235; SYBR Green Assay) [ng/mL] | W2 (P. falciparum W2; SYBR Green Assay) [ng/mL] | further results
CN(C)CCCNc1nc(Nc2ccc(Cl)c(Cl)c2)nc(n1)C(Cl)(Cl)Cl [Compound 637] |  |  |  |  | D6 (SYBR Green Assay IC50) (P. falciparum D6): 0.017 µg/mL; hERG (% inhibition) [1]: 103%; C235 (SYBR Green Assay IC50) (P. falciparum C235): 0.02 µg/mL; W2 (SYBR Green Assay IC50) (P. falciparum W2): 0.013 µg/mL
CN1CCCN(c2nc(-c3cc(Cl)cc(Cl)c3)nc(C(Cl)(Cl)Cl)n2)CC1 [Cmpd 205] | 23 | 20 | 26 | 7 | 
NC1(CNc2nc(-c3cccc(C(F)(F)F)c3)nc(C(Cl)(Cl)Cl)n2)CCOCC1 [Cmpd 315] | 3 | 36 | 8 | 1 | 
CSc1ccc(-c2nc(NCCC3CCCN3C)nc(C(Cl)(Cl)Cl)n2)cc1 (stereo not drawn) [Cmpd 45] | 43 | 38 | 74 | 91 | 
4-((4-((pyridin-2-ylmethyl)amino)-6-(trichloromethyl)-1,3,5-triazin-2-yl)amino)phenol [Example 14] | 37 | 11 | 36 | 24 | 
Cc1ccccc1-c1nc(NCCN2CCCC2)nc(C(Cl)(Cl)Cl)n1 [Cmpd 121] | 70 | 103 | 84 | 42 | 
Clc1ccc(-c2nc(NCCc3ccccn3)nc(C(Cl)(Cl)Cl)n2)cc1 [Cmpd 140] | 106 | 11 | 136 | 32 | 
CCC(N)(CC)CNc1nc(-c2ccc(-c3ccccc3)cc2)nc(C(Cl)(Cl)Cl)n1 [Cmpd 364] |  |  |  |  | D6 (SYBR Green Assay IC50) (P. falciparum D6): 0.003 µg/mL; hERG (% inhibition) [1]: 25%; C235 (SYBR Green Assay IC50) (P. falciparum C235): 0.006 µg/mL; W2 (SYBR Green Assay IC50) (P. falciparum W2): 0.004 µg/mL
CCN1CCCC(Nc2nc(-c3ccc(F)cc3)nc(C(Cl)(Cl)Cl)n2)C1 (stereo not drawn) [Cmpd 387] |  |  |  |  | D6 (SYBR Green Assay IC50) (P. falciparum D6): 0.004 µg/mL; hERG (% inhibition) [1]: 108%; C235 (SYBR Green Assay IC50) (P. falciparum C235): 0.013 µg/mL; W2 (SYBR Green Assay IC50) (P. falciparum W2): 0.007 µg/mL
4-(4-(((1-ethylpiperidin-4-yl)methyl)amino)-6-(trichloromethyl)-1,3,5-triazin-2-yl)benzoic acid [Example 12] | 5 |  | 4 | 11 | hERG ([1]; hERG activity as % inhibition): 39%
CCN1CCC(CC1)C(C)Nc2nc(Nc3cc(Cl)cc(Cl)c3)nc(n2)C(Cl)(Cl)Cl [Compound 645] |  |  |  |  | D6 (SYBR Green Assay IC50) (P. falciparum D6): 0.07911 µg/mL; hERG (% inhibition) [1]: 75%; C235 (SYBR Green Assay IC50) (P. falciparum C235): 0.05886 µg/mL; W2 (SYBR Green Assay IC50) (P. falciparum W2): 0.0375 µg/mL
CCN(CC)CCNc1nc(Nc2ccc(OC(F)(F)F)cc2)nc(C(Cl)(Cl)Cl)n1 [Cmpd 374] |  |  |  |  | D6 (SYBR Green Assay IC50) (P. falciparum D6): 0.002 µg/mL; hERG (% inhibition) [1]: 109%; C235 (SYBR Green Assay IC50) (P. falciparum C235): 0.005 µg/mL; W2 (SYBR Green Assay IC50) (P. falciparum W2): 0.005 µg/mL
CCC(N)(CC)CNc1nc(-c2ccc(Cl)cc2)nc(C(Cl)(Cl)Cl)n1 [Cmpd 356] |  |  |  |  | D6 (SYBR Green Assay IC50) (P. falciparum D6): 0.003 µg/mL; hERG (% inhibition) [1]: 44%; C235 (SYBR Green Assay IC50) (P. falciparum C235): 0.007 µg/mL; W2 (SYBR Green Assay IC50) (P. falciparum W2): 0.003 µg/mL
CC(C)(C)c1ccc(cc1)c2nc(Nc3ccncc3)nc(n2)C(Cl)(Cl)Cl [Compound 739] | 23 |  | 25 | 24 | hERG ([1]; hERG activity as % inhibition): 26%
COc1ccc(Cc2nc(NCCN3CCCC3C)nc(C(Cl)(Cl)Cl)n2)cc1 (stereo not drawn) [Cmpd 89] | 805 | 50 | 991 | 718 | 
CCN1CCC(CNc2nc(-c3ccc(-c4ccccc4)cc3)nc(C(Cl)(Cl)Cl)n2)CC1 [Cmpd 306] | 54 | 38 | 87 | 30 | 
CN1CCC(Nc2nc(-c3ccc(S(C)(=O)=O)cc3)nc(C(Cl)(Cl)Cl)n2)CC1 [Cmpd 77] | 92 | 72 | 131 | 53 | 
ClC(Cl)(Cl)c1nc(NCCN2CCCC2)nc(-c2ccc(-c3ccccc3)cc2)n1 [Cmpd 196] | 31 | 53 | 30 | 25 | 
CC(C)(C)OC(=O)N1CC2CC1CN2c1nc(-c2ccc(S(C)(=O)=O)cc2)nc(C(Cl)(Cl)Cl)n1 (stereo not drawn) [Compound 715, CC(C)(C)OC(═O)N1CC2CC1CN2c3nc(nc(n3)C(Cl)(Cl)Cl)c4ccc(cc4)S(═O)(═O)C] | 126 |  | 185 | 63 | hERG ([1]; hERG activity as % inhibition): 19%
ClC(Cl)(Cl)c1nc(nc(n1)c2ccccc2)N3CC4CC3CN4 [Compound 720] | 56 |  | 89 | 35 | hERG ([1]; hERG activity as % inhibition): 84%
Clc1ccc(-c2nc(NCCCCCN3CCCC3)nc(C(Cl)(Cl)Cl)n2)cc1 [Cmpd 561] |  |  |  |  | D6 (SYBR Green Assay IC50) (P. falciparum D6): 0.03967 µg/mL; hERG (% inhibition) [1]: 63%; C235 (SYBR Green Assay IC50) (P. falciparum C235): 0.03869 µg/mL; W2 (SYBR Green Assay IC50) (P. falciparum W2): 0.02784 µg/mL
CCN(CC)CCNc1nc(Cc2ccccc2OC)nc(C(Cl)(Cl)Cl)n1 [Cmpd 70] | 6 | 100 | 6 | 6 | 
tert-butyl 5-(4-(4-chlorophenyl)-6-(trichloromethyl)-1,3,5-triazin-2-yl)-2,5-diazabicyclo[2.2.1]heptane-2-carboxylate [Example 6] | 33 | 96 | 44 | 26 | 
COc1ncccc1Nc1nc(NC2CC(C)(C)NC(C)(C)C2)nc(C(Cl)(Cl)Cl)n1 [Cmpd 348] | 11 | 96 | 18 | 9 | 
CC(CNc1nc(-c2ccc(Cl)c(Cl)c2)nc(C(Cl)(Cl)Cl)n1)N(C)C (stereo not drawn) [Example 1, N^1-(4-(3,4-dichlorophenyl)-6-(trichloromethyl)-1,3,5-triazin-2-yl)-N^2,N^2-dimethylpropane-1,2-diamine] |  |  |  |  | IC50 (P. falciparum D6; [3]): 0.0416 µg/mL (≈ 0.0937 µM); hERG ([1]; hERG activity as % inhibition): 95%; IC50 (P. falciparum C235; [3]): 0.0367 µg/mL (≈ 0.0828 µM); IC50 (P. falciparum W2; [3]): 0.0294 µg/mL (≈ 0.0663 µM)
Fc1ccc(-c2nc(NCCCN3CCCC3)nc(C(Cl)(Cl)Cl)n2)cc1 [Cmpd 381] |  |  |  |  | D6 (SYBR Green Assay IC50) (P. falciparum D6): 0.005 µg/mL; hERG (% inhibition) [1]: 106%; C235 (SYBR Green Assay IC50) (P. falciparum C235): 0.014 µg/mL; W2 (SYBR Green Assay IC50) (P. falciparum W2): 0.009 µg/mL
CN1CCN(c2nc(-c3ccc(Cl)cc3)nc(C(Cl)(Cl)Cl)n2)CC1 [Cmpd 29] | 307 | 5 | 351 | 173 | 
CN1CCN(c2nc(-c3ccc(-c4ccccc4)cc3)nc(C(Cl)(Cl)Cl)n2)CC1 [Cmpd 298] | 62 | 10 | 87 | 33 | 
ClC(Cl)(Cl)c1nc(NCCN2CCCC2)nc(-c2ccc(OCc3ccccc3)cc2)n1 [Cmpd 35] | 194 | 56 | 186 | 125 | 
Cc1cc(CNc2nc(nc(n2)C(Cl)(Cl)Cl)c3ccc(Cl)c(Cl)c3)n(C)n1 [Compound 708] | 319.7 |  | 221 | 75.2 | hERG ([1]; hERG activity as % inhibition): 12.2%
